Results published in US20020115663A1, “Novel compounds” (priority 2000, published 2002).

Target: Human PTP1B (Homo sapiens, UniProt P18031)
Settings: 2 mM, control wells
Description: Human PTP1B (amino acid residues 1-298, cloned from a human placental library), without the GST tag and thrombin cleavage site, was inserted into a pMB replicon and transformed into E. coli BL21 (DE3), a strain containing a chromosomal copy of the gene for T7 RNA polymerase under control of a lacUV5 promoter. Expression of PTP1B was induced with isopropyl thiogalactose and cells were lysed in lysis buffer comprising 50 mM Tris-HCl pH 7.5, 10% glycerol, 1 mM EDTA, 3 mM DTT, 3 mM MgCl2, and 0.2 mg/ml lysozyme with 1 mg/ml DNAse I. The soluble protein was purified by ion exchange, hydrophobic interaction and gel exclusion chromatography for use in assays to identify PTP1B inhibitors. […] Recombinant proteins were stored at −70° C. until used.
Human PTP1B activity was measured using p-nitrophenol phosphate (pNPP) as substrate in a 96-well microtiter plate format. An assay pH of 7.2 is used for standard assays (measured extinction coefficient =9800 at pH 7.2).
Standard assays were conducted at room temperature in a total volume of 0.2 ml that contains Hepes buffer (50 mM, pH 7.2), NaCl (50 mM), EDTA (1 mM), DTT (1 mM), bovine serum albumin (1 mg/ml), pNPP (1.25 mM) and PTP1B (500 ng/ml, 13.5 nM). […] The OD^405 was subsequently measured. […]

Chain of Human PTP1B (P18031 1-298): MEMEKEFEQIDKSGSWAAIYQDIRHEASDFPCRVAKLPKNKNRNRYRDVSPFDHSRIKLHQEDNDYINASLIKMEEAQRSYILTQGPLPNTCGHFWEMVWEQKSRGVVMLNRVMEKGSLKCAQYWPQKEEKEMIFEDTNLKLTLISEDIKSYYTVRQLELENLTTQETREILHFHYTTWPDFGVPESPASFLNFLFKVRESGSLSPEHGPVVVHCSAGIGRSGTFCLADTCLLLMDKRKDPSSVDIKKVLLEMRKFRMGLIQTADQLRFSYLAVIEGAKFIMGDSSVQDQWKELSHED

## [Na+].[Na+].[Na+].[O]=[V]([O-])([O-])[O-] [sodium orthovanadate]
  inhibition of PTP1B-catalyzed hydrolysis of pNPP: completely
